Experiments:
Assay type in all cases: cell-based
Conditions in all cases: for growth of the microorganism: MIT ppm = row head c0
Escherichia coli = assay: MIC and synergy of MIT and BIT in Müller-Hinton broth, 72 h; for growth of the microorganism: key: growth of the microorganism took place (symbol '+'); or not (symbol '−')
Procedure: For this purpose, aqueous mixtures were produced with various concentrations of 2-methylisothiazolin-3-one (MIT) and 1,2-benzisothiazolin-3-one (BIT) and the activity of these mixtures on Escherichia coli (International Mycological Institute, Strain No. IMI 362054) was tested.
In addition to the biocide component and water, the aqueous mixtures contained a nutrient medium, namely a Müller-Hinton broth (commercial product “Merck No. 10393”). The cell density of Escherichia coli was 10^6 cells/mL. The incubation time was 72 h at 25° C. Each sample was incubated on an incubation shaker at 120 rpm.
(§1) The synergy index is calculated according to the method of F. C. Kull et al., Applied Microbiology, Vol. 9 (1961), p. 538. Here the synergy index is calculated using the following formula:
(§2) Synergy index SI=Qa/QA+Qb/QB.
When the synergy index has the value 1, this means that there is an addition of the activity of the two biocides. When the synergy index has a value of less than 1, this means that a synergy of the two biocides exists.

Pseudomonas stutzeri = assay: as above; for growth of the microorganism: key: growth of the microorganism took place (symbol '+'); or not (symbol '−')
Procedure: as §1, §2
The synergy of MIT and BIT against the microorganism Pseudomonas stutzeri is shown as in Example 1.
The test batches again contained a Müller-Hinton broth as a nutrient medium. The cell density was 10^6 cells/mL. The incubation time was 72 h at 25° C. Each sample was incubated on an incubation shaker at 120 rpm.

Pseudomonas aeruginosa = assay: MIC and synergy of MIT and BIT in Müller-Hinton broth, 48 h; for growth of the microorganism: key: growth of the microorganism took place (symbol '+'); or not (symbol '−')
Procedure: as §1, §2
The synergy of the two active substances MIT and BIT against the microorganism Pseudomonas aeruginosa is shown as in Example 1.
The test batches again contained a Müller-Hinton broth as a nutrient medium. The cell density was 10^6 cells/mL. The incubation time was 48 h at 25° C. Each sample was incubated on an incubation shaker at 120 rpm.

[1] = BIT share of the BIT/MIT mixture at MIC, 72 h

O=c1[nH]sc2ccccc12 [BIT, 1,2-benzisothiazolin-3-one]
MIC at Total concentration BIT + MIT Qa + Qb (Escherichia coli; 72 h): 25 ppm
Qa/QA (Escherichia coli; 72 h): 1.00
Synergy index Qa/QA + Qb/QB (Escherichia coli; 72 h, method of Kull): 1.00
growth of the microorganism (Escherichia coli; BIT 1 ppm, 72 h): +
growth of the microorganism (Escherichia coli; BIT 2.5 ppm, 72 h): +
growth of the microorganism (Escherichia coli; BIT 5 ppm, 72 h): +
growth of the microorganism (Escherichia coli; BIT 7.5 ppm, 72 h): +
growth of the microorganism (Escherichia coli; BIT 10 ppm, 72 h): +
growth of the microorganism (Escherichia coli; BIT 12.5 ppm, 72 h): +
growth of the microorganism (Escherichia coli; BIT 15 ppm, 72 h): +
growth of the microorganism (Escherichia coli; BIT 17.5 ppm, 72 h): +
growth of the microorganism (Escherichia coli; BIT 20 ppm, 72 h): +
growth of the microorganism (Escherichia coli; BIT 25 ppm, 72 h): −
growth of the microorganism (Escherichia coli; BIT 30 ppm, 72 h): −
growth of the microorganism (Escherichia coli; BIT 35 ppm, 72 h): −
MIC at BIT concentration Qa (Escherichia coli; [1]): 25 ppm
MIC value (Escherichia coli; used alone, 72 h at 25° C.): 25 ppm
MIC at Total concentration BIT + MIT Qa + Qb (Pseudomonas stutzeri; 72 h): 20 ppm
Qa/QA (Pseudomonas stutzeri; 72 h): 1.00
Synergy index Qa/QA + Qb/QB (Pseudomonas stutzeri; 72 h): 1.00
growth of the microorganism (Pseudomonas stutzeri; BIT 0.5 ppm, 72 h): +
growth of the microorganism (Pseudomonas stutzeri; BIT 1 ppm, 72 h): +
growth of the microorganism (Pseudomonas stutzeri; BIT 2.5 ppm, 72 h): +
growth of the microorganism (Pseudomonas stutzeri; BIT 5 ppm, 72 h): +
growth of the microorganism (Pseudomonas stutzeri; BIT 7.5 ppm, 72 h): +
growth of the microorganism (Pseudomonas stutzeri; BIT 10 ppm, 72 h): +
growth of the microorganism (Pseudomonas stutzeri; BIT 15 ppm, 72 h): +
growth of the microorganism (Pseudomonas stutzeri; BIT 20 ppm, 72 h): −
growth of the microorganism (Pseudomonas stutzeri; BIT 25 ppm, 72 h): −
growth of the microorganism (Pseudomonas stutzeri; BIT 30 ppm, 72 h): −
MIC at BIT concentration Qa (Pseudomonas stutzeri; [1]): 20 ppm
MIC value (Pseudomonas stutzeri; used alone, 72 h at 25° C.): 20 ppm
MIC at Total concentration BIT + MIT Qa + Qb (Pseudomonas aeruginosa; 48 h): 150 ppm
Qa/QA (Pseudomonas aeruginosa; 48 h): 1.00
Synergy index Qa/QA + Qb/QB (Pseudomonas aeruginosa; 48 h): 1.00
growth of the microorganism (Pseudomonas aeruginosa; BIT 5 ppm, 48 h): +
growth of the microorganism (Pseudomonas aeruginosa; BIT 10 ppm, 48 h): +
growth of the microorganism (Pseudomonas aeruginosa; BIT 25 ppm, 48 h): +
growth of the microorganism (Pseudomonas aeruginosa; BIT 50 ppm, 48 h): +
growth of the microorganism (Pseudomonas aeruginosa; BIT 75 ppm, 48 h): +
growth of the microorganism (Pseudomonas aeruginosa; BIT 100 ppm, 48 h): +
growth of the microorganism (Pseudomonas aeruginosa; BIT 125 ppm, 48 h): +
growth of the microorganism (Pseudomonas aeruginosa; BIT 150 ppm, 48 h): −
growth of the microorganism (Pseudomonas aeruginosa; BIT 175 ppm, 48 h): −
growth of the microorganism (Pseudomonas aeruginosa; BIT 200 ppm, 48 h): −
MIC at BIT concentration Qa (Pseudomonas aeruginosa; BIT share of the BIT/MIT mixture at MIC, 48 h): 150 ppm
MIC value (Pseudomonas aeruginosa; used alone, 48 h at 25° C.): 150 ppm
